Laboratory results reported in US20060058310A1, “Remedies for vertebral canal stenosis” (priority 2002, published 2006).
Entries after “also recorded” stand apart in the source; their conditions may differ.

Tested on: rat of gait disturbance model by cauda equina compression
Test: Walking ability (treadmill) in rat gait disturbance model by cauda equina compression
Assay type: in vivo
Conditions: spinal canal stenosis model, administered orally for 11 days after the operation, vs negative control (carboxymethylcellulose or toragacanth gum), Dunnett's test, FIG. 1 and FIG. 2
Description: Improvement effect of this invented compound in a rat model of gait disturbance model by cauda equina compression:
<Method of Making an Animal Model>
A rat of gait disturbance model by cauda equina compression was made by the method of Takenobu et al. (J. Neurosci. Methods, 104(2), 191-198 (2002)). Namely, a rat was anesthetized by sodium pentobarbital, removed its dorsal hair and then was fixed its body in the prone position. After disinfection of the back with Chlorhexidine gluconate (5% Hibiten Liquid: Sumitomo Pharmaceuticals), the lumbar was incised along the midline to expose the spine. After excision of the fifth lumbar spinous process, silicon rubber 1×4×1.25 mm (height×length×width) were inserted into the fourth and the sixth lumbar spinal canals from small holes of vertebral arch which was made by mini-drill. […]
The rats were put on the running belt, and adapted to the condition where the grid was sent an electric current (0.04 mA-4 mA) for three minutes or more. […] The distance between the point to walk and the point to give up walk, in other words, the point where it is impossible for them to walk even though the stimulation (sound, contact and electricity) to make them walk was given, was measured with the mileometer built into the equipment. […] The results obtained from the compounds- and negative control-groups were analyzed by the Dunnett's multiple comparison test (*P<0.05). […]

Question: Which “improvement of walking dysfunction (walking distance on treadmill)” value does the source give for `O=C1C[C@@]2(C(=O)N1)C(=O)N(Cc1ccc(Br)cc1F)C(=O)c1cccn12` [Compound B, (R)-2-(4-bromo-2-fluorobenzyl)spiro[1,2,3,4-tetrahydropyrrolo[1,2-a]pyrazine-4,3′-pyrrolidine]-1,2′,3,5′-tetrone] here?
Answer: improved the pathology; also recorded: improved the walking dysfunction
